Measured values from US10239873B2, “7-azaindole or 4,7-diazaindole derivatives as IKKϵ epsilon and TBK1 inhibitor and pharmaceutical composition comprising same” (GREEN CROSS CORPORATION, priority 2015, dated 2019).
Structures can show the parent of a compound that is named as a salt.

How the values were obtained:
[1] = target: T1, TBK1 (Homo sapiens, UniProt Q9UHD2); assay: ADP-Glo Kinase Assay, inhibition activity on TBK1; assay type: biochemical
T1 construct: purchased Promega (Invitrogen is also named in the same bracket) V4158; PR8031B; V3991 (not assigned to the two kinases)
T1 sequence (Q9UHD2 1-729): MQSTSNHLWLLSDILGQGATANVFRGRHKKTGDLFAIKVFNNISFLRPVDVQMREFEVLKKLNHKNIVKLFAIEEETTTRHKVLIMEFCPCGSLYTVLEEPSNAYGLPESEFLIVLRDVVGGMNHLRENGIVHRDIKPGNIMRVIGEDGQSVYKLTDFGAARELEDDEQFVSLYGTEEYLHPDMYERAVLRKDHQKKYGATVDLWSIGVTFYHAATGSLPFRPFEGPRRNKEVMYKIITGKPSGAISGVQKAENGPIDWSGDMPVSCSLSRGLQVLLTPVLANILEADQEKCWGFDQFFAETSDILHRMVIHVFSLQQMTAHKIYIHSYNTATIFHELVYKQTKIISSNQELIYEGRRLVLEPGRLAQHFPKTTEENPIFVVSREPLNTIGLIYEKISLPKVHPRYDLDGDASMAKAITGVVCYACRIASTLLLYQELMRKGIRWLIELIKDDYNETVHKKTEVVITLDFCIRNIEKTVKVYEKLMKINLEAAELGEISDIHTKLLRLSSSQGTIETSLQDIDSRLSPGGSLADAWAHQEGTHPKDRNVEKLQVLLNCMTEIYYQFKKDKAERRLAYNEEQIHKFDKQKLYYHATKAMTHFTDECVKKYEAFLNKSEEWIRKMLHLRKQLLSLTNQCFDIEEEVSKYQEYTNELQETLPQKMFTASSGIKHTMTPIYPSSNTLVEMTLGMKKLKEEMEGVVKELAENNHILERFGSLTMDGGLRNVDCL
Outline: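 In 40 mM Tris pH 7.5 with 20 mM MgCl2 and 0.1 mg/mL BSA, each enzyme (IKKε or TBK1 kinase system) was run according to the manufacturer's protocol. ADP formed was detected by ADP-Glo luminescence.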

[2] = target: T2, IKKε (Homo sapiens, UniProt Q14164); assay: ADP-Glo Kinase Assay, inhibition activity on IKKε; assay type: biochemical
T2 construct: purchased Promega and/or Invitrogen V4158; PR8031B; V3991 (not assigned to the two kinases)
T2 sequence (Q14164 1-716): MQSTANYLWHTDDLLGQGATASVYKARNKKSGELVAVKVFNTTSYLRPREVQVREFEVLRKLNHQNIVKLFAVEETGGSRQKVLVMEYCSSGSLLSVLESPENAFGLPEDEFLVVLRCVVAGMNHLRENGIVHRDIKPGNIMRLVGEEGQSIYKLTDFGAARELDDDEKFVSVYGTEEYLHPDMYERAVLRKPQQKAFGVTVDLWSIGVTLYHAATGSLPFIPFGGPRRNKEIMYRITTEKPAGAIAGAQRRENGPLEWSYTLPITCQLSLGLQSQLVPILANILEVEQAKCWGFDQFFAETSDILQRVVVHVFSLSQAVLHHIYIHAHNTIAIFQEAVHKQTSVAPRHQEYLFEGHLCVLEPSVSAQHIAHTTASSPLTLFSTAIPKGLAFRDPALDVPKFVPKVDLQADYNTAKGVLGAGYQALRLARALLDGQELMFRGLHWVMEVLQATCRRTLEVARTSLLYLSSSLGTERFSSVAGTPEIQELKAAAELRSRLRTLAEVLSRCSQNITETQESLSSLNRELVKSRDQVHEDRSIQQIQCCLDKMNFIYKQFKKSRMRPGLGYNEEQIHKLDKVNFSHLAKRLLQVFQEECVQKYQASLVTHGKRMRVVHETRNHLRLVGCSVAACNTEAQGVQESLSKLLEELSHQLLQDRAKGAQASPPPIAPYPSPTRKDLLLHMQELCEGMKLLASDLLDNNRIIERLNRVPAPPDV
Experimental: Inhibition activities on IKKϵ and TBK1 were evaluated using the compounds of Examples 1 to 250.
The inhibition activities on IKKϵ and TBK1 were measured by a luminometer, IKKϵ/TBK1 Kinase Enzyme System (Promega, Ca# V4158; Invitrogen, PR8031B, Promega, Ca# V3991) and ADP-Glo Kinase Assay using ADP-Glo™ Kinase Analysis Kit (Promega, Ca# V9101) and a kinase reaction buffer [40 mM Tris(pH 7.5), 20 mM MgCl2, 0.1 mg/mL BSA] in accordance with the manufacturer's protocol.

IC50 [1] [nM] | IC50 [2] [nM] | Compound
7 | 13 | CC(C)NC(=O)N1CC=C(c2c[nH]c3ncc(-c4ccc(C(=O)N5CCN(C)CC5)cc4)cc23)CC1 [Example 32, N-isopropyl-4-(5-(4-(4-methylpiperazine-1-carbonyl)phenyl)-1H-pyrrolo[2,3-b]pyridin-3-yl)-5,6-dihydropyridine-1(2H)-carboxamide]
1.1 | 6.9 | CC(C)NC(=O)N1CC=C(c2c[nH]c3ncc(-c4ccc(CN5CCN(C)CC5)s4)cc23)CC1 [Example 33, N-isopropyl-4-(5-(5-((4-methylpiperazin-1-yl)methyl)thiophen-2-yl)-1H-pyrrolo[2,3-b]pyridin-3-yl)-5,6-dihydropyridine-1(2H)-carboxamide]
18 | 110 | CC(C)NC(=O)N1CC=C(c2c[nH]c3ncc(-c4ccc(CN5CCN(C)CC5)o4)cc23)CC1 [Example 35, N-isopropyl-4-(5-(5-((4-methylpiperazin-1-yl)methyl)furan-2-yl)-1H-pyrrolo[2,3-b]pyridin-3-yl)-5,6-dihydropyridine-1(2H)-carboxamide]
1.9 | 62 | CCC(C)NC(=O)N1CC=C(c2c[nH]c3ncc(-c4ccc(CN5CCN(C)CC5)s4)cc23)CC1 (stereo not shown) [Example 42, N-(sec-butyl)-4-(5-(5-((4-methylpiperazin-1-yl)methyl)thiophen-2-yl)-1H-pyrrolo[2,3-b]pyridin-3-yl)-5,6-dihydropyridine-1(2H)-carboxamide]
3.3 | 24 | O=C(NC1CC1)N1CC=C(c2c[nH]c3ncc(-c4ccc(CN5CCNCC5)s4)cc23)CC1 [Example 45, N-cyclopropyl-4-(5-(5-(piperazin-1-ylmethyl)thiophen-2-yl)-1H-pyrrolo[2,3-b]pyridin-3-yl)-5,6-dihydropyridine-1(2H)-carboxamide dihydrochloride]
14 | 25 | CN1CCN(Cc2ccc(-c3cnc4[nH]cc(C5=CCN(C(=O)NC6CC6)CC5)c4c3)cc2)CC1 [Example 46, N-cyclopropyl-4-(5-(4-((4-methylpiperazin-1-yl)methyl)phenyl)-1H-pyrrolo[2,3-b]pyridin-3-yl)-5,6-dihydropyridine-1(2H)-carboxamide]
3.6 | 12 | CN1CCN(Cc2ccc(-c3cnc4[nH]cc(C5=CCN(C(=O)NC6CC6)CC5)c4c3)s2)CC1 [Example 47, N-cyclopropyl-4-(5-(5-((4-methylpiperazin-1-yl)methyl)thiophen-2-yl)-1H-pyrrolo[2,3-b]pyridin-3-yl)-5,6-dihydropyridine-1(2H)-carboxamide]
8.2 | 10 | O=C(NC1CC1)N1CC=C(c2c[nH]c3ncc(-c4ccc(CN5CCOCC5)s4)cc23)CC1 [Example 48, N-cyclopropyl-4-(5-(5-(morpholinomethyl)thiophen-2-yl)-1H-pyrrolo[2,3-b]pyridin-3-yl)-5,6-dihydropyridine-1(2H)-carboxamide]
51 | 600 | CCCS(=O)(=O)c1ccc(-c2cnc3[nH]cc(C4=CCN(C(=O)NC5CCCC5)CC4)c3c2)cc1 [Example 55, N-cyclopentyl-4-(5-(4-(propylsulfonyl)phenyl)-1H-pyrrolo[2,3-b]pyridin-3-yl)-5,6-dihydropyridine-1(2H)-carboxamide]
58 | 190 | O=C(NC1CCCC1)N1CC=C(c2c[nH]c3ncc(-c4ccc(S(=O)(=O)C5CC5)cc4)cc23)CC1 [Example 56, N-cyclopentyl-4-(5-(4-(cyclopropylsulfonyl)phenyl)-1H-pyrrolo[2,3-b]pyridin-3-yl)-5,6-dihydropyridine-1(2H)-carboxamide]

Further lines, the compound ahead of its results:

Compound | IC50 [1] [nM] | IC50 [2] [nM]
CC(C)NC(=O)N1CC=C(c2c[nH]c3ncc(-c4cccc(C(=O)N5CCN(C)CC5)c4)cc23)CC1 [Example 31, N-isopropyl-4-(5-(3-(4-methylpiperazine-1-carbonyl)phenyl)-1H-pyrrolo[2,3-b]pyridin-3-yl)-5,6-dihydropyridine-1(2H)-carboxamide] | 15 | 46
CC(C)NC(=O)N1CC=C(c2c[nH]c3ncc(-c4ccc(NC5CCOCC5)cc4)cc23)CC1 [Example 37, N-isopropyl-4-(5-(4-((tetrahydro-2H-pyran-4-yl)amino)phenyl)-1H-pyrrolo[2,3-b]pyridin-3-yl)-3,6-dihydropyridine-1(2H)-carboxamide] | 10 | 13
CC(C)NC(=O)N1CC=C(c2c[nH]c3ncc(-c4ccc(OC5CCOCC5)cc4)cc23)CC1 [Example 38, N-isopropyl-4-(5-(4-((tetrahydro-2H-pyran-4-yl)oxy)phenyl)-1H-pyrrolo[2,3-b]pyridin-3-yl)-3,6-dihydropyridine-1(2H)-carboxamide] | 29 | 21
CC(C)NC(=O)N1CC=C(c2c[nH]c3ncc(-c4ccc(N)c5c4CNC5=O)cc23)CC1 [Example 39, 4-(5-(7-Amino-1-oxoisoindolidin-4-yl)-1H-pyrrolo[2,3-b]pyridin-3-yl)-N-isopropyl-3,6-dihydropyridine-1(2H)-carboxamide] | 35 | 35
CCC(CC)NC(=O)N1CC=C(c2c[nH]c3ncc(-c4ccc(CN5CCOCC5)s4)cc23)CC1 [Example 40, 4-(5-(5-(Morpholinomethyl)thiophen-2-yl)-1H-pyrrolo[2,3-b]pyridin-3-yl)-N-(pentan-3-yl)-3,6-dihydropyridine-1(2H)-carboxamide] | 74 | 170
CCC(CC)NC(=O)N1CC=C(c2c[nH]c3ncc(-c4ccc(CN5CCN(C)CC5)s4)cc23)CC1 [Example 41, 4-(5-(5-((4-Methylpiperazin-1-yl)methyl)thiophen-2-yl)-1H-pyrrolo[2,3-b]pyridin-3-yl)-N-(pentan-3-yl)-3,6-dihydropyridine-1(2H)-carboxamide] | 47 | 220
COc1ccc(-c2cnc3[nH]cc(C4=CCN(C(=O)NC5CCCC5)CC4)c3c2)cc1F [Example 50, N-cyclopentyl-4-(5-(3-fluoro-4-methoxyphenyl)-1H-pyrrolo[2,3-b]pyridin-3-yl)-5,6-dihydropyridine-1(2H)-carboxamide] | 330 | 410
CS(=O)(=O)c1cccc(-c2cnc3[nH]cc(C4=CCN(C(=O)NC5CCCC5)CC4)c3c2)c1 [Example 52, N-cyclopentyl-4-(5-(3-(methylsulfonyl)phenyl)-1H-pyrrolo[2,3-b]pyridin-3-yl)-5,6-dihydropyridine-1(2H)-carboxamide] | 23 | 48
CCS(=O)(=O)c1cccc(-c2cnc3[nH]cc(C4=CCN(C(=O)NC5CCCC5)CC4)c3c2)c1 [Example 54, N-cyclopentyl-4-(5-(3-(ethylsulfonyl)phenyl)-1H-pyrrolo[2,3-b]pyridin-3-yl)-3,6-dihydropyridine-1(2H)-carboxamide] | 32 | 84
COc1ccc(-c2cnc3[nH]cc(C4=CCN(C(=O)NC5CCCC5)CC4)c3c2)cc1S(=O)(=O)N1CCOCC1 [Example 63, N-cyclopentyl-4-(5-(4-methoxy-3-(morpholinosulfonyl)phenyl)-1H-pyrrolo[2,3-b]pyridin-3-yl)-5,6-dihydropyridine-1(2H)-carboxamide] | 29 | 440
